Earlier results on three molecules are cited in patent publication EP1069913B1, “GELLING OPHTHALMIC COMPOSITIONS CONTAINING XANTHAN GUM” (Alcon Laboratories, Inc., priority 1998, dated 1999).

SMILES strings stand for the structures.

The conditions of this data set: Maleate: second pKa; Boric Acid: in presence of 3.75 to 4.4 wt.% mannitol.
In the case of `OB(O)O` [Boric Acid], the pKa is 5.7-5.85.

Consider `O=C(O)/C=C\C(=O)O` [Maleate], for which the pKa is recorded as 6.33.

With `CC(C)(C)NC[C@H](O)COc1nsnc1N1CCOCC1` [Timolol, reference compound], the pKa was 9.21.
